Values quoted from earlier work in paper PMC7463651, “Phase I/Ib Study of Tenalisib (RP6530), a Dual PI3K δ/γ Inhibitor in Patients with Relapsed/Refractory T-Cell Lymphoma” (Cancers, 2020).
Where two headings read alike, the source gives them in different places.

Test system: PTCL/CTCL
Design: method as in PMID 21245435, PMID 28641053, PMID 26101246
Conditions: cited from earlier work

O=C(/C=C/c1cccc(S(=O)(=O)Nc2ccccc2)c1)NO [belinostat]
Overall response rate (ORR) (FDA approved single agent): 26%

C#CCC(Cc1cnc2nc(N)nc(N)c2n1)c1ccc(C(=O)N[C@@H](CCC(=O)O)C(=O)O)cc1 (stereo partly shown) [pralatrexate]
Overall response rate (ORR) (FDA approved single agent): 29%

C/C=C1\NC(=O)[C@H]2CSSCC/C=C/[C@H](CC(=O)N[C@H](C(C)C)C(=O)N2)OC(=O)[C@H](C(C)C)NC1=O [romidepsin]
Overall response rate (ORR) (FDA approved single agent): 25%

brentuximab vedotin
Overall response rate (ORR) (in CD30+ T-cells): 68%
